From patent US20140065632A1, “MARKER GENE FOR DETECTION OF TUMOR PROMOTER, AND METHOD FOR DETECTION OF TUMOR PROMOTER” (priority 2007, published 2014)
Like-named read-outs stand apart in the source and are kept apart here.

Assays:
[1] = system: Orm1; test: Quantitative RT-PCR of Orm1 gene expression in the BALB/c 3T3 cell transformation assay; type: cell-based, mouse
[2] = system: BALB/c 3T3 cells; set-up: focus formation ability (intensity of the tumor-promoting activity): key to the marks not given beside the values
[3] = system: Bhas cells
[4] = Example 3, MCA-initiated BALB/c 3T3 cells, RNA 48 hours after addition of test substance, normalized by β-actin

Row | Compound | Expression level of Orm1 (rates relative to the negative control) [1, 4] | Focus formation in the BALB/c 3T3 cell transformation assay [2] | ability to form foci in the BALB/c 3T3 cell transformation assay [2] | ability to form foci in the Bhas cellular transformation assay [3] | Expression level of Orm1 (rates relative to the negative control) [1] | focus formation ability (intensity of the tumor-promoting activity) [2] | focus formation in the BALB/c 3T3 cell transformation assay [2]
1 | CC(C)[C@@H]1CC[C@@H](C)C[C@H]1O (racemic) [dl-menthol, DL-menthol] | 0.9 | − | unable to form foci |  |  |  | 
2 | O=[N+]([O-])c1cccc2ccccc12 [1-nitronaphthalene] |  | − | unable to form foci |  |  |  | 
3 | c1ccc2cc3c(ccc4ccccc43)cc2c1 [Benz[a]anthracen, benz[a]anthracene] |  | − | unable to form foci |  |  |  | 
4 | c1ccc2c(c1)ccc1c3ccccc3ccc21 [Chrysene, chrysene] |  | − | unable to form foci | able to form foci |  |  | 
5 | OC[C@@H](O)[C@@H](O)[C@H](O)[C@H](O)CO [D-mannitol] |  | − | unable to form foci |  |  |  | 
6 | C[C@H](CCC(=O)O)[C@H]1CC[C@H]2[C@@H]3CC[C@@H]4C[C@H](O)CC[C@]4(C)[C@H]3CC[C@]12C [Lithocholic acid, lithocholic acid] |  | + | able to form foci | able to form foci |  |  | 
7 | C=C(C)[C@@]12O[C@@]3(c4ccccc4)O[C@@H]1[C@@H]1[C@@H]4O[C@]4(CO)[C@@H](O)[C@]4(O)C(=O)C(C)=C[C@H]4[C@@]1(O3)[C@H](C)[C@H]2OC(=O)/C=C/C=C/c1ccccc1 [Mezerein, mezerein] |  | + | able to form foci | able to form foci | 2.6 | +++ | 
8 | C=C1[C@@H](O)[C@@H]2O[C@]3(CC[C@H](/C=C/[C@@H](C)[C@@H]4CC(C)=C[C@@]5(O[C@H](C[C@@](C)(O)C(=O)O)CC[C@H]5O)O4)O3)CC[C@H]2O[C@@H]1[C@@H](O)C[C@H](C)[C@H]1O[C@@]2(CCCCO2)CC[C@H]1C [Okadaic acid, okadaic acid] |  | + | able to form foci |  |  | +++ | 
9 | c1cc2cccc3c4cccc5cccc(c(c1)c23)c54 [Perylene, perylene] |  | − | unable to form foci | able to form foci |  |  | 
10 | CCC1(c2ccccc2)C(=O)NC(=O)NC1=O [Phenobarbital sodium, phenobarbital sodium] |  | + | able to form foci |  |  | ++ | 
11 | O=C1NS(=O)(=O)c2ccccc21.[Na] [Saccharin sodium, saccharin sodium] |  | + | able to form foci |  |  | ++ | 
12 | O=[As]O [Sodium arsenite, sodium arsenite] |  | + | able to form foci |  |  | ++ | 
13 | O=C1O[C@H]([C@@H](O)CO)C([O-])=C1O.[Na+] [Sodium ascorbate, sodium ascorbate] |  | − | unable to form foci |  |  |  | 
14 | [Na+].[Na+].[Na+].[O]=[V]([O-])([O-])[O-] [Sodium orthovanadate, sodium orthovanadate] |  | + | able to form foci |  | 1.5 | +++ | 
15 | CC(C)(C)c1cc(O)ccc1O [TBHQ, tert-butylhydroquinone] |  | − | unable to form foci | able to form foci |  |  | 
16 | CCCCCCCCCCCCCC(=O)O[C@@H]1[C@@H](C)[C@@]2(O)[C@@H](C=C(CO)C[C@]3(O)C(=O)C(C)=C[C@@H]23)[C@@H]2C(C)(C)[C@]12OC(C)=O [TPA, phorbol 12-myristate 13-acetate] |  | + | able to form foci | able to form foci | 2.3 | +++ | Significant focus formation was observed
17 | [Cl-].[Cl-].[Zn+2] [Zinc chloride, zinc chloride] |  | + | able to form foci | able to form foci | 3.4 | +++ | Significant focus formation was observed
18 | COc1ccc(O)c(C(C)(C)C)c1 [butylhydroxyanisol] |  |  |  |  |  | ++ | 
19 | insulin | 2.0 | + | able to form foci | able to form foci |  | ++ | 
